Laboratory results published in ChEMBL document CHEMBL1133787, “Solid-phase optimisation of achiral amidinobenzyl indoles as potent and selective factor Xa inhibitors” (Bioorg Med Chem Lett, 2001).

How the values were obtained:
Prothrombin = Prothrombin (Homo sapiens, UniProt P00734); assay: Inhibitory activity against thrombin was determined
Coagulation factor X = Coagulation factor X (Homo sapiens, UniProt P00742); assay: Inhibitory activity against serine protease factor Xa (fXa) was determined
Coagulation factor X, sequence (P00742 41-179 limits assumed): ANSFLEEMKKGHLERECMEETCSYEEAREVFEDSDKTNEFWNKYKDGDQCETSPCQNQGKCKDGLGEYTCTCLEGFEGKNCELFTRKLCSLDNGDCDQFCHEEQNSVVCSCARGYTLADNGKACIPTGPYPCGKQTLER
Coagulation factor X, sequence (P00742 235-488 limits assumed): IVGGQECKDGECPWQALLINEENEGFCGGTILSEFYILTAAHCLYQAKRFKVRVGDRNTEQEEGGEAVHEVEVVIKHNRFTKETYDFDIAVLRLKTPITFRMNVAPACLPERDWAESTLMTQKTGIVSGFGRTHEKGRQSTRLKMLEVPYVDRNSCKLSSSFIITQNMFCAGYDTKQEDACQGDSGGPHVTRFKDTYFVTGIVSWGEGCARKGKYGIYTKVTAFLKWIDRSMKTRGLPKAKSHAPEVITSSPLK

With C[N+](C)(C)c1ccc(CNC(=O)c2cc3cc(O)ccc3n2Cc2cccc(C(=N)N)c2)cc1 the Ki (Prothrombin) was 12000 nM and the Ki (Coagulation factor X) was 28 nM.
With Cc1cc(C)cc(CNC(=O)c2cc3c(O)cccc3n2Cc2cccc(C(=N)N)c2)c1 the Ki (Prothrombin) was 620 nM and the Ki (Coagulation factor X) was 11 nM.
In the case of N=C(N)c1cccc(CNC(=O)c2cc3cc(N)ccc3n2Cc2cccc(C(=N)N)c2)c1, the Ki (Coagulation factor X) is reported as 84 nM.
Compound N=C(N)c1cccc(CNC(=O)c2cc3c(O)cccc3n2Cc2cccc(C(=N)N)c2)c1 has a Ki (Prothrombin) of 3600 nM.
N=C(N)c1cccc(Cn2c(C(=O)NCc3cccc(Cl)c3)cc3c(O)cccc32)c1 showed a Ki (Coagulation factor X) of 262 nM.
Compound N=C(N)c1cccc(Cn2c(C(=O)Nc3cc(Cl)cc(Cl)c3)cc3c(O)cccc32)c1 has a Ki (Coagulation factor X) of 798 nM.
N=C(N)c1cccc(Cn2c(C(=O)NCCc3cccc(Cl)c3)cc3c(O)cccc32)c1 was tested, and the Ki (Coagulation factor X) was 707 nM.
In the case of N=C(N)c1cccc(Cn2c(C(=O)NCc3cc(Cl)cc(Cl)c3)cc3c(O)cccc32)c1, the Ki (Prothrombin) is reported as 771 nM and the Ki (Coagulation factor X) is reported as 5 nM.
